# Reference: ChEMBL document CHEMBL1157840, “Synthesis and the selective antifungal activity of 5,6,7,8-tetrahydroimidazo[1,2-a]pyridine derivatives” (Eur J Med Chem, 2010)
# System: Candida albicans
# Assay: Antifungal activity against Candida albicans clinical isolate after 24 hrs by broth microdilution assay
# Type: functional
# Conditions: not given
row,Structure (SMILES),MIC [µg/mL]
1,CC(=O)N1CCN(c2ccc(OCC3COC(Cn4ccnc4)(c4ccc(Cl)cc4Cl)O3)cc2)CC1 (stereo not drawn) [KETOCONAZOLE],0.063
2,O=C(N/N=C/c1ccc([N+](=O)[O-])cc1)c1cn2c(n1)CCCC2,0.125
3,CC(C)c1ccc(/C=N/NC(=O)c2cn3c(n2)CCCC3)cc1,0.125
4,COC1=CC(=O)C[C@@H](C)[C@]12Oc1c(Cl)c(OC)cc(OC)c1C2=O [GRISEOFULVIN],0.25

# The remaining lines, values ahead:
row,MIC [µg/mL],Structure (SMILES)
1,0.125,CN(C)c1ccc(/C=N/NC(=O)c2cn3c(n2)CCCC3)cc1
2,0.125,O=C(N/N=C/c1ccc(Cl)cc1)c1cn2c(n1)CCCC2

# System: Candida albicans
# Assay: Antifungal activity against Candida albicans ATCC 90028 after 24 hrs by broth microdilution assay
# Type: functional
# Conditions: ATCC 90028, 24 h
row,Structure (SMILES),MIC [µg/mL]
1,CC(=O)N1CCN(c2ccc(OCC3COC(Cn4ccnc4)(c4ccc(Cl)cc4Cl)O3)cc2)CC1 (stereo not drawn) [KETOCONAZOLE],0.063
2,O=C(N/N=C/c1ccc([N+](=O)[O-])cc1)c1cn2c(n1)CCCC2,0.5
3,CC(C)c1ccc(/C=N/NC(=O)c2cn3c(n2)CCCC3)cc1,> 0.25

# Second part, the molecule after the results:
row,MIC [µg/mL],Structure (SMILES)
1,> 0.25,CN(C)c1ccc(/C=N/NC(=O)c2cn3c(n2)CCCC3)cc1
2,0.5,O=C(N/N=C/c1ccc(Cl)cc1)c1cn2c(n1)CCCC2

# System: Nakaseomyces glabratus
# Assay: Antifungal activity against Candida glabrata clinical isolate 1 after 24 hrs by broth microdilution assay
# Type: functional
# Conditions: isolate 1, 24 h
row,Structure (SMILES),MIC [µg/mL]
1,CC(=O)N1CCN(c2ccc(OCC3COC(Cn4ccnc4)(c4ccc(Cl)cc4Cl)O3)cc2)CC1 (stereo not drawn) [KETOCONAZOLE],0.125
2,O=C(N/N=C/c1ccc([N+](=O)[O-])cc1)c1cn2c(n1)CCCC2,0.5
3,CC(C)c1ccc(/C=N/NC(=O)c2cn3c(n2)CCCC3)cc1,> 0.25
4,COC1=CC(=O)C[C@@H](C)[C@]12Oc1c(Cl)c(OC)cc(OC)c1C2=O [GRISEOFULVIN],0.25

# Other lines, results leading:
row,MIC [µg/mL],Structure (SMILES)
1,> 0.25,CN(C)c1ccc(/C=N/NC(=O)c2cn3c(n2)CCCC3)cc1
2,> 0.25,O=C(N/N=C/c1ccc(Cl)cc1)c1cn2c(n1)CCCC2

# System: Cyberlindnera jadinii
# Assay: Antifungal activity against Candida utilis NRRL Y-900 after 24 hrs by broth microdilution assay
# Type: functional
# Conditions: Williopsis jadinii, NRRL Y-900, 24 h
row,Structure (SMILES),MIC [µg/mL]
1,CC(=O)N1CCN(c2ccc(OCC3COC(Cn4ccnc4)(c4ccc(Cl)cc4Cl)O3)cc2)CC1 (stereo not drawn) [KETOCONAZOLE],0.125
2,O=C(N/N=C/c1ccc([N+](=O)[O-])cc1)c1cn2c(n1)CCCC2,0.5
3,CC(C)c1ccc(/C=N/NC(=O)c2cn3c(n2)CCCC3)cc1,> 0.25
4,COC1=CC(=O)C[C@@H](C)[C@]12Oc1c(Cl)c(OC)cc(OC)c1C2=O [GRISEOFULVIN],0.5

# The next lines start with the values.
row,MIC [µg/mL],Structure (SMILES)
1,> 0.25,CN(C)c1ccc(/C=N/NC(=O)c2cn3c(n2)CCCC3)cc1
2,> 0.25,O=C(N/N=C/c1ccc(Cl)cc1)c1cn2c(n1)CCCC2

# System: Candida tropicalis
# Assay: Antifungal activity against Candida tropicalis NRRL Y-12968 after 24 hrs by broth microdilution assay
# Type: functional
# Conditions: NRRL Y-12968, 24 h
row,Structure (SMILES),MIC [µg/mL]
1,CC(=O)N1CCN(c2ccc(OCC3COC(Cn4ccnc4)(c4ccc(Cl)cc4Cl)O3)cc2)CC1 (stereo not drawn) [KETOCONAZOLE],0.125
2,O=C(N/N=C/c1ccc([N+](=O)[O-])cc1)c1cn2c(n1)CCCC2,0.25
3,CC(C)c1ccc(/C=N/NC(=O)c2cn3c(n2)CCCC3)cc1,0.125
4,COC1=CC(=O)C[C@@H](C)[C@]12Oc1c(Cl)c(OC)cc(OC)c1C2=O [GRISEOFULVIN],0.125

# Further lines, results first:
row,MIC [µg/mL],Structure (SMILES)
1,0.125,CN(C)c1ccc(/C=N/NC(=O)c2cn3c(n2)CCCC3)cc1
2,> 0.25,O=C(N/N=C/c1ccc(Cl)cc1)c1cn2c(n1)CCCC2

# System: Pichia kudriavzevii
# Assay: Antifungal activity against Candida krusei NRRL Y-7179 after 24 hrs by broth microdilution assay
# Type: functional
# Conditions: NRRL Y-7179, 24 h
row,Structure (SMILES),MIC [µg/mL]
1,CC(=O)N1CCN(c2ccc(OCC3COC(Cn4ccnc4)(c4ccc(Cl)cc4Cl)O3)cc2)CC1 (stereo not drawn) [KETOCONAZOLE],0.125
2,O=C(N/N=C/c1ccc([N+](=O)[O-])cc1)c1cn2c(n1)CCCC2,0.5
3,CC(C)c1ccc(/C=N/NC(=O)c2cn3c(n2)CCCC3)cc1,> 0.25
4,COC1=CC(=O)C[C@@H](C)[C@]12Oc1c(Cl)c(OC)cc(OC)c1C2=O [GRISEOFULVIN],0.25

# Other lines, results leading:
row,MIC [µg/mL],Structure (SMILES)
1,> 0.25,CN(C)c1ccc(/C=N/NC(=O)c2cn3c(n2)CCCC3)cc1
2,> 0.25,O=C(N/N=C/c1ccc(Cl)cc1)c1cn2c(n1)CCCC2

# System: [Candida] zeylanoides
# Assay: Antifungal activity against Candida zeylanoides NRRL Y-1774 after 24 hrs by broth microdilution assay
# Type: functional
# Conditions: Dujonia zeylanoides, NRRL Y-1774, 24 h
row,Structure (SMILES),MIC [µg/mL]
1,CC(=O)N1CCN(c2ccc(OCC3COC(Cn4ccnc4)(c4ccc(Cl)cc4Cl)O3)cc2)CC1 (stereo not drawn) [KETOCONAZOLE],0.5
2,O=C(N/N=C/c1ccc([N+](=O)[O-])cc1)c1cn2c(n1)CCCC2,0.25
3,CC(C)c1ccc(/C=N/NC(=O)c2cn3c(n2)CCCC3)cc1,> 0.25
4,COC1=CC(=O)C[C@@H](C)[C@]12Oc1c(Cl)c(OC)cc(OC)c1C2=O [GRISEOFULVIN],0.5

# The remaining lines, values ahead:
row,MIC [µg/mL],Structure (SMILES)
1,> 0.25,CN(C)c1ccc(/C=N/NC(=O)c2cn3c(n2)CCCC3)cc1
2,> 0.25,O=C(N/N=C/c1ccc(Cl)cc1)c1cn2c(n1)CCCC2

# System: Candida parapsilosis
# Assay: Antifungal activity against Candida parapsilosis NRRL Y-12696 after 24 hrs by broth microdilution assay
# Type: functional
# Conditions: Lodderomyces parapsilosis, NRRL Y-12696, 24 h
row,Structure (SMILES),MIC [µg/mL]
1,CC(=O)N1CCN(c2ccc(OCC3COC(Cn4ccnc4)(c4ccc(Cl)cc4Cl)O3)cc2)CC1 (stereo not drawn) [KETOCONAZOLE],0.032
2,O=C(N/N=C/c1ccc([N+](=O)[O-])cc1)c1cn2c(n1)CCCC2,0.25
3,CC(C)c1ccc(/C=N/NC(=O)c2cn3c(n2)CCCC3)cc1,> 0.25
4,COC1=CC(=O)C[C@@H](C)[C@]12Oc1c(Cl)c(OC)cc(OC)c1C2=O [GRISEOFULVIN],0.5

# Second part, the molecule after the results:
row,MIC [µg/mL],Structure (SMILES)
1,> 0.25,CN(C)c1ccc(/C=N/NC(=O)c2cn3c(n2)CCCC3)cc1
2,0.5,O=C(N/N=C/c1ccc(Cl)cc1)c1cn2c(n1)CCCC2

# System: Candida albicans
# Assay: Antifungal activity against Candida albicans NRRL Y-12983 after 24 hrs by broth microdilution assay
# Type: functional
# Conditions: NRRL Y-12983, 24 h
row,Structure (SMILES),MIC [µg/mL]
1,CC(=O)N1CCN(c2ccc(OCC3COC(Cn4ccnc4)(c4ccc(Cl)cc4Cl)O3)cc2)CC1 (stereo not drawn) [KETOCONAZOLE],0.032
2,O=C(N/N=C/c1ccc([N+](=O)[O-])cc1)c1cn2c(n1)CCCC2,0.25
3,CC(C)c1ccc(/C=N/NC(=O)c2cn3c(n2)CCCC3)cc1,> 0.25

# Other lines, results leading:
row,MIC [µg/mL],Structure (SMILES)
1,> 0.25,CN(C)c1ccc(/C=N/NC(=O)c2cn3c(n2)CCCC3)cc1
2,0.5,O=C(N/N=C/c1ccc(Cl)cc1)c1cn2c(n1)CCCC2

# System: Nakaseomyces glabratus
# Assay: Antifungal activity against Candida glabrata clinical isolate 2 after 24 hrs by broth microdilution assay
# Type: functional
# Conditions: not given
row,Structure (SMILES),MIC [µg/mL]
1,CC(=O)N1CCN(c2ccc(OCC3COC(Cn4ccnc4)(c4ccc(Cl)cc4Cl)O3)cc2)CC1 (stereo not drawn) [KETOCONAZOLE],0.032
2,O=C(N/N=C/c1ccc([N+](=O)[O-])cc1)c1cn2c(n1)CCCC2,0.25
3,CC(C)c1ccc(/C=N/NC(=O)c2cn3c(n2)CCCC3)cc1,0.5
4,COC1=CC(=O)C[C@@H](C)[C@]12Oc1c(Cl)c(OC)cc(OC)c1C2=O [GRISEOFULVIN],0.125

# The remaining lines, values ahead:
row,MIC [µg/mL],Structure (SMILES)
1,> 0.25,CN(C)c1ccc(/C=N/NC(=O)c2cn3c(n2)CCCC3)cc1
2,0.125,O=C(N/N=C/c1ccc(Cl)cc1)c1cn2c(n1)CCCC2

# System: SK-MEL
# Assay: Cytotoxicity against human SK-MEL cells up to 25 ug/ml after 48 hrs by neutral red assay
# Type: cell-based
# Conditions: not given
row,Structure (SMILES),Activity
1,CN(C)c1ccc(/C=N/NC(=O)c2cn3c(n2)CCCC3)cc1,Non-toxic
2,O=C(N/N=C/c1ccc(Cl)cc1)c1cn2c(n1)CCCC2,Non-toxic
3,CC(=O)N1CCN(c2ccc(OCC3COC(Cn4ccnc4)(c4ccc(Cl)cc4Cl)O3)cc2)CC1 (stereo not drawn) [KETOCONAZOLE],Non-toxic
4,O=C(N/N=C/c1ccc([N+](=O)[O-])cc1)c1cn2c(n1)CCCC2,Non-toxic
5,CC(C)c1ccc(/C=N/NC(=O)c2cn3c(n2)CCCC3)cc1,Non-toxic
6,COC1=CC(=O)C[C@@H](C)[C@]12Oc1c(Cl)c(OC)cc(OC)c1C2=O [GRISEOFULVIN],Non-toxic

# System: BT-549
# Assay: Cytotoxicity against human BT549 cells up to 25 ug/ml after 48 hrs by neutral red assay
# Type: cell-based
# Conditions: bt-549, 48 h
row,Structure (SMILES),Activity
1,CN(C)c1ccc(/C=N/NC(=O)c2cn3c(n2)CCCC3)cc1,Non-toxic
2,O=C(N/N=C/c1ccc(Cl)cc1)c1cn2c(n1)CCCC2,Non-toxic
3,CC(=O)N1CCN(c2ccc(OCC3COC(Cn4ccnc4)(c4ccc(Cl)cc4Cl)O3)cc2)CC1 (stereo not drawn) [KETOCONAZOLE],Non-toxic
4,O=C(N/N=C/c1ccc([N+](=O)[O-])cc1)c1cn2c(n1)CCCC2,Non-toxic
5,CC(C)c1ccc(/C=N/NC(=O)c2cn3c(n2)CCCC3)cc1,Non-toxic
6,COC1=CC(=O)C[C@@H](C)[C@]12Oc1c(Cl)c(OC)cc(OC)c1C2=O [GRISEOFULVIN],Non-toxic

# System: SK-OV-3
# Assay: Cytotoxicity against human SKOV3 cells up to 25 ug/ml after 48 hrs by neutral red assay
# Type: cell-based
# Conditions: sk-ov-3, 48 h
row,Structure (SMILES),Activity
1,CN(C)c1ccc(/C=N/NC(=O)c2cn3c(n2)CCCC3)cc1,Non-toxic
2,O=C(N/N=C/c1ccc(Cl)cc1)c1cn2c(n1)CCCC2,Non-toxic
3,CC(=O)N1CCN(c2ccc(OCC3COC(Cn4ccnc4)(c4ccc(Cl)cc4Cl)O3)cc2)CC1 (stereo not drawn) [KETOCONAZOLE],Non-toxic
4,O=C(N/N=C/c1ccc([N+](=O)[O-])cc1)c1cn2c(n1)CCCC2,Non-toxic
5,CC(C)c1ccc(/C=N/NC(=O)c2cn3c(n2)CCCC3)cc1,Non-toxic
6,COC1=CC(=O)C[C@@H](C)[C@]12Oc1c(Cl)c(OC)cc(OC)c1C2=O [GRISEOFULVIN],Non-toxic

# System: Vero
# Assay: Cytotoxicity against african green monkey Vero cells up to 25 ug/ml after 48 hrs by neutral red assay
# Type: cell-based
# Conditions: chlorocebus sabaeus
row,Structure (SMILES),Activity
1,CN(C)c1ccc(/C=N/NC(=O)c2cn3c(n2)CCCC3)cc1,Non-toxic
2,O=C(N/N=C/c1ccc(Cl)cc1)c1cn2c(n1)CCCC2,Non-toxic
3,CC(=O)N1CCN(c2ccc(OCC3COC(Cn4ccnc4)(c4ccc(Cl)cc4Cl)O3)cc2)CC1 (stereo not drawn) [KETOCONAZOLE],Non-toxic
4,O=C(N/N=C/c1ccc([N+](=O)[O-])cc1)c1cn2c(n1)CCCC2,Non-toxic
5,CC(C)c1ccc(/C=N/NC(=O)c2cn3c(n2)CCCC3)cc1,Non-toxic
6,COC1=CC(=O)C[C@@H](C)[C@]12Oc1c(Cl)c(OC)cc(OC)c1C2=O [GRISEOFULVIN],Non-toxic

# System: not listed separately
# Assay: Cytotoxicity against african pig LLC-PK11 up to 25 ug/ml after 48 hrs by neutral red assay
# Design: species or system Sus scrofa
# Conditions: not given
row,Structure (SMILES),Activity
1,CN(C)c1ccc(/C=N/NC(=O)c2cn3c(n2)CCCC3)cc1,Non-toxic
2,O=C(N/N=C/c1ccc(Cl)cc1)c1cn2c(n1)CCCC2,Non-toxic
3,CC(=O)N1CCN(c2ccc(OCC3COC(Cn4ccnc4)(c4ccc(Cl)cc4Cl)O3)cc2)CC1 (stereo not drawn) [KETOCONAZOLE],Non-toxic
4,O=C(N/N=C/c1ccc([N+](=O)[O-])cc1)c1cn2c(n1)CCCC2,Non-toxic
5,CC(C)c1ccc(/C=N/NC(=O)c2cn3c(n2)CCCC3)cc1,Non-toxic
6,COC1=CC(=O)C[C@@H](C)[C@]12Oc1c(Cl)c(OC)cc(OC)c1C2=O [GRISEOFULVIN],Non-toxic
